Measured values: paper PMC8160438, “A Novel Heptapeptide, GPPGPAG Transfers to the Brain, and Ameliorates Memory Dysfunction and Dendritic Atrophy in Alzheimer’s Disease Model Mice” (Frontiers in Pharmacology, 2021)
No end group written: not given here.

Assays:
Stability in saline = format: physicochemical; conditions: 5 μg/ml, 37°C, 0, 10, 60, 180 min, LC-MS, n = 1
Method: (§1) For intraventricular administration, GPPGPAG was dissolved in artificial cerebrospinal fluid (ACSF; 130 mM NaCl, 24 mM NaHCO3, 3.5 mM KCl, 1.3 mM Na2HPO4, 2 mM CaCl2, 2 mM MgCl2 6H2O, and 10 mM glucose at pH 7.4) for use. GPPGPAG or ACSF was continuously injected for 28 days into the left ventricle (bregma: −0.2 mm, lateral: 1.0 mm, depth: −3.0 mm) using Alzet Osmotic Pump (1004, DURECT Corporation, CA, United States) and ALZET Brain Infusion Kit 3 (DURECT Corporation). Based on the amount of CSF produced which was 18 μL/h and the pump flow rate of 0.11 μL/h, the peptide in the pump was estimated to be diluted 164 times in the CSF to reach a final concentration 10 nM which was the effective dose in the cultured neuron experiments. Therefore 1.64 µM GPPGPAG was loaded into the pump. Stability of GPPGPAG in saline, mouse plasma and mouse cerebral cortex was confirmed by LC-MS quantification. GPPGPAG was mixed with saline or plasma at 5 μg/ml concentration. Otherwise, GPPGPAG was mixed with cortical lysate at 6.5 μg/g of cortex. After incubation at 37°C for 0, 10, 60, and 180 min, samples were dried up and served to LC-MS. Areas of MS peaks of GPPGPAG were quantified. […]
(§2) Stability of GPPGPAG in biological fluids.
(§3) (A) GPPGPAG was mixed with saline at 5 μg/ml concentration. (B) GPPGPAG was mixed with mouse plasma at 5 μg/ml concentration. […]

[1] = Stability in lysate of mouse cerebral cortex; format: in vitro ADME
Method: as §1, §2, §3

cortical neurons = test: Entry into cultured cortical neurons, LC-MS of the lysate; format: in vitro ADME, mouse; conditions: 1 mg/dish, 1.0 x 10^7 cells/10-cm dish, 0, 10, 20, 30, 60, 180, 360 min
Method: Intracellular amount of GPPGPAG after addition to cultured cortical neurons.
Mouse cortical neurons were seeded at 1.0 x 10^7 cells/10-cm dish. After 3 – 4 days culture, 1 mg/dish GPPGPAG was added. Incubation time was 0, 10,20, 30, 60, 180 and 360 min. After complete washing by PBS, cell lysate was prepared by M-PER solution. The lysate was ultrasonicated with methanol for 60 sec, and centrifuged (12000g) for 10 min at 4℃. Supernatant was dried up and served for […]
(1 picture or pasted object on this page, not shown here)

[2] = Stability in mouse plasma; format: in vitro ADME; conditions: 5 μg/ml, 37°C, 0, 10, 60, 180 min, LC-MS, n = 1
Method: as §1, §2, §3

stability, amount remaining (MS peak area) (Stability in saline): not declined during 180 min-incubation | stability, amount remaining (MS peak area) ([1]; fresh lysate of mouse cerebral cortex, 6.5 μg/g of cortex, 37°C, 0, 10, 60, 180 min, LC-MS, n = 1): declined at 60 min after the incubation | time retained in the brain after entering ([1]; inferred from stability in plasma and cortical lysate): ≤ 10 min
Substance: GPPGPAG [GPPGPAG]
entry into the neurons (intracellular amount) (cortical neurons): detected from 10 min after treatment and gradually increased up to 360 min afterward | stability, amount remaining (MS peak area) [2]: gradually reduced after 60-min incubation
